≈ marks a conversion by molar mass, not a printed value. Where “and” joins values, the source holds several entries; their conditions need not be identical. Identical values can stand only once.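 Cells were grown in 96-well plates and exposed to each compound for 48 hours at five concentrations; endpoints were interpolated linearly between bracketing concentrations, or set to the highest concentration if not reached. GI50: concentration for 50% inhibition of growth. TGI: total growth inhibition.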
Key:
Test in all cases: NCI tumour cell line growth inhibition, 48 h
786-0 renal = system: 786-0 renal
A498 renal = system: A498 renal
A549 NSCLC = system: A549 NSCLC
ACHN renal = system: ACHN renal
BT-549 breast = system: BT-549 breast
CAKI-1 renal = system: CAKI-1 renal
CCRF-CEM leukemia = system: CCRF-CEM leukemia
COLO 205 colon = system: COLO 205 colon
DU-145 prostate = system: DU-145 prostate
EKVX NSCLC = system: EKVX NSCLC
HCC-2998 colon = system: HCC-2998 colon
HCT-116 colon = system: HCT-116 colon
HCT-15 colon = system: HCT-15 colon
HL-60(TB) leukemia = system: HL-60(TB) leukemia
HOP-62 NSCLC = system: HOP-62 NSCLC
HOP-92 NSCLC = system: HOP-92 NSCLC
HS 578T breast = system: HS 578T breast
HT29 colon = system: HT29 colon
IGROV1 ovarian = system: IGROV1 ovarian
K-562 leukemia = system: K-562 leukemia
KM12 colon = system: KM12 colon
LOX IMVI melanoma = system: LOX IMVI melanoma
M14 melanoma = system: M14 melanoma
MALME-3M melanoma = system: MALME-3M melanoma
MCF7 breast = system: MCF7 breast
MDA-MB-231 breast = system: MDA-MB-231 breast
MDA-MB-435 = system: MDA-MB-435
MDA-N = system: MDA-N
MOLT-4 leukemia = system: MOLT-4 leukemia
NCI-H226 lung = system: NCI-H226 lung

For `COc1cccc2c1C(=O)c1c(O)c3c(c(O)c1C2=O)CC(O)(C(=O)CO)CC3OC1CC(N)C(O)C(C)O1` (configuration not stated), the GI50 (786-0 renal) was 6.54 µg/mL and 10.4 µg/mL, the TGI (786-0 renal) was 75 µg/mL and > 150 µg/mL and the GI50 (A498 renal) was 19 µg/mL and 33.8 µg/mL. The TGI (A498 renal) was 75 µg/mL and > 150 µg/mL, the GI50 (A549 NSCLC) was 4.17 µg/mL and 22.6 µg/mL and the TGI (A549 NSCLC) was 75 µg/mL and > 150 µg/mL. The GI50 (ACHN renal) was 20.2 µg/mL and 12.2 µg/mL, the TGI (ACHN renal) was 75 µg/mL and > 150 µg/mL and the GI50 (BT-549 breast) was 34.6 µg/mL and 108 µg/mL. For the same compound, the TGI (BT-549 breast) was 75 µg/mL and > 150 µg/mL, the GI50 (CAKI-1 renal) was 16.3 µg/mL and 64 µg/mL and the TGI (CAKI-1 renal) was 75 µg/mL and > 150 µg/mL. For the same compound, the GI50 (CCRF-CEM leukemia) was 0.801 µg/mL and 4.97 µg/mL, the GI50 (COLO 205 colon) was 9.99 µg/mL and 25.6 µg/mL and the TGI (COLO 205 colon) was 75 µg/mL and > 150 µg/mL. For the same compound, the GI50 (DU-145 prostate) was 15.9 µg/mL and 71 µg/mL, the TGI (DU-145 prostate) was 75 µg/mL and > 150 µg/mL and the GI50 (EKVX NSCLC) was 75 µg/mL (≈ 138 µM). For the same compound, the TGI (EKVX NSCLC) was 75 µg/mL (≈ 138 µM), the GI50 (HCC-2998 colon) was 37.2 µg/mL and 26 µg/mL and the TGI (HCC-2998 colon) was 75 µg/mL and 122 µg/mL. For the same compound, the GI50 (HCT-116 colon) was 7.26 µg/mL and 17.4 µg/mL, the TGI (HCT-116 colon) was 75 µg/mL and > 150 µg/mL and the GI50 (HCT-15 colon) was 75 µg/mL and > 150 µg/mL. The TGI (HCT-15 colon) was 75 µg/mL and > 150 µg/mL, the GI50 (HL-60(TB) leukemia) was 2.84 µg/mL and 26.4 µg/mL and the TGI (HL-60(TB) leukemia) was 75 µg/mL and > 150 µg/mL. For the same compound, the GI50 (HOP-62 NSCLC) was 5.83 µg/mL and 5.96 µg/mL, the TGI (HOP-62 NSCLC) was 75 µg/mL and > 150 µg/mL and the GI50 (HOP-92 NSCLC) was 23.9 µg/mL and 7.86 µg/mL. The TGI (HOP-92 NSCLC) was 75 µg/mL and 127 µg/mL, the GI50 (HS 578T breast) was 33.8 µg/mL (≈ 62.2 µM) and the TGI (HS 578T breast) was 75 µg/mL (≈ 138 µM). The GI50 (HT29 colon) was 15.7 µg/mL and 49.5 µg/mL, the TGI (HT29 colon) was 75 µg/mL and > 150 µg/mL and the GI50 (IGROV1 ovarian) was 16.1 µg/mL and 60.1 µg/mL. For the same compound, the TGI (IGROV1 ovarian) was 75 µg/mL and > 150 µg/mL, the GI50 (K-562 leukemia) was 9.4 µg/mL and 25.2 µg/mL and the TGI (K-562 leukemia) was 75 µg/mL and > 150 µg/mL. The GI50 (KM12 colon) was 16.9 µg/mL and 54.4 µg/mL, the TGI (KM12 colon) was 75 µg/mL and > 150 µg/mL and the GI50 (LOX IMVI melanoma) was 3.89 µg/mL and 19.5 µg/mL. The TGI (LOX IMVI melanoma) was 75 µg/mL and > 150 µg/mL, the GI50 (M14 melanoma) was 9.35 µg/mL and 48.5 µg/mL and the TGI (M14 melanoma) was 75 µg/mL and > 150 µg/mL. For the same compound, the GI50 (MALME-3M melanoma) was 10 µg/mL and 81.4 µg/mL, the TGI (MALME-3M melanoma) was 75 µg/mL and > 150 µg/mL and the GI50 (MCF7 breast) was 2.76 µg/mL and 10.7 µg/mL. For the same compound, the TGI (MCF7 breast) was 75 µg/mL and > 150 µg/mL, the GI50 (MDA-MB-231 breast) was 44.1 µg/mL and 79.3 µg/mL and the TGI (MDA-MB-231 breast) was 75 µg/mL and > 150 µg/mL. For the same compound, the GI50 (MDA-MB-435) was 8.56 µg/mL and 67 µg/mL, the TGI (MDA-MB-435) was 75 µg/mL and > 150 µg/mL and the GI50 (MDA-N) was 37.5 µg/mL and 69.1 µg/mL. The TGI (MDA-N) was 75 µg/mL and > 150 µg/mL, the GI50 (MOLT-4 leukemia) was 1.13 µg/mL and 1.46 µg/mL and the GI50 (NCI-H226 lung) was 1.75 µg/mL and 7.36 µg/mL.
